Reference: patent publication US10106523B2, “Amide compound” (ASTELLAS PHARMA INC., priority 2014, dated 2018)

Tests used:
[1] = test system: renin activity in rat plasma; assay: Action on renin activity in rat plasma (PRA increase due to EP4 agonist ONO-AE1-437); type: in vivo; conditions: SD rats, 0.3 mg/kg po; ONO-AE1-437 0.01 mg/kg sc
Method: Test Example 6: Evaluation Test of Action on Renin Activity in Rat Plasma
SD rats (male, 7-week old) under non-fasting conditions were used for the test. A test compound dissolved in a mixed solution of PEG 400:20% Tween 80:1 mol/L aqueous NaHCO3 solution=1:4:5 was orally administered (po) to the rat at a dose of 0.3 mg/kg (5 mL/kg). After 1 hour, an active metabolite (ONO-AE1-437) of an EP4 agonist ONO-4819 dissolved in physiological saline was subcutaneously administered to the back of the rat at a dose of 0.01 mg/kg (5 mL/kg). After 10 minutes, the rat was decapitated without anesthesia and about 2 mL of blood was collected in a tube containing 3 mg of EDTA.2Na. The blood sample was centrifuged (1000×g, 10 minutes, 4° C.) to separate the plasma. […] The Angiotensin I concentration in both samples was measured by an ELISA method, and a concentration obtained by subtracting a value of the blank reaction from the value of the sample incubated at 37° C. was taken as a renin activity in plasma (plasma renin activity (PRA)). By taking the PRA of the inhibitor rate of the group (n=5) not treated with ONO-AE1-437 as 100% and taking that of the group (n=4) treated with ONO-AE1-437 as 0%, the inhibitory rate of the test compound group (n=5) was calculated.

[2] = biological target: T1, rat EP1 receptor (Rattus norvegicus, UniProt P70597); assay: Selectivity test: antagonistic action on rat EP1 receptor (intracellular Ca2+, HEK-293 cells); type: cell-based; conditions: PGE2 100 nmol/L, HEK-293 cells stably expressing rat EP1; read-out: Concentration up to which no inhibitory action of 50% or more on the increase in intracellular Ca2+ concentration due to PGE2 through the rat EP1 receptor
T1 construct: expressed in transfected cells
T1 sequence (P70597 1-405): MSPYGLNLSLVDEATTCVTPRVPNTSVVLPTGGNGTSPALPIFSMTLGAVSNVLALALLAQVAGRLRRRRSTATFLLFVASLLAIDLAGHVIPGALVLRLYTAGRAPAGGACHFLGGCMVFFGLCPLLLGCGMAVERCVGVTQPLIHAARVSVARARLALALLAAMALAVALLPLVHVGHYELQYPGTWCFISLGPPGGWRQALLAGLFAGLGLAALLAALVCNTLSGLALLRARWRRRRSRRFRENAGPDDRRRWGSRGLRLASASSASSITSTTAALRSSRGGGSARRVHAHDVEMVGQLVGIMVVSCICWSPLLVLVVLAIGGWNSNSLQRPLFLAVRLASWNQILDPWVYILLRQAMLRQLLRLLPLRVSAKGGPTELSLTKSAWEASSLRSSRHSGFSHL
Method: Test Example 9: Evaluation Test of Receptor Antagonistic Action on Rat EP1/EP2/EP3 Receptor (Selectivity Test)
The antagonistic action of Compound A on other subtypes ([…], EP2, and EP3) of the rat-derived PGE2 receptor was evaluated. For EP1 and EP3, the intracellular Ca^2+ amount was used as an indicator, and for EP2, the intracellular cAMP amount was used as an indicator, so as to investigate the action of the test compound.
Construction of Rat EP1, EP2, or EP3 Receptor Expressing Vector: A rat EP1 receptor gene (GenBank accession No.: D88751.1), a rat EP2 receptor gene (GenBank accession No.: NM_031088.1), or a rat EP3 receptor gene (GenBank accession No.: NM_012704.1) were inserted respectively into an expression vector pcDNA3.1-V5-His-TOPO (Invitrogen Inc.).
Construction of Cell Stably Expressing Rat EP1, EP2, or EP3 Receptor: […]
The intracellular Ca^2+ concentration was measured using FLIPR tetra (Molecular Devices, LLC.) with the fluorescence intensity of the Dye as an indicator. […] By taking the Ca^2+ concentration when PGE2 was added to a final concentration of 100 nmol/L as 100%, and taking the Ca^2+ concentration when PGE2 was not added as 0%, the Ca^2+ concentration in percentage with a treatment with the compound was calculated.

IC50 [2]: > 10 µM
Compound: Cc1nn(Cc2cc3ccccc3cn2)c(C(=O)N[C@@H](C)c2ccc(C(=O)O)cc2)c1Br [Compound A, 4-[(1S)-1-({[4-bromo-1-(isoquinolin-3-ylmethyl)-3-methyl-1H-pyrazol-5-yl]carbonyl}amino)ethyl]benzoic acid]
Inhibition of the increase in PRA (plasma renin activity) due to the EP4 agonist ONO-AE1-437 [1]: 102%
